Like-named read-outs stand apart in the source and are kept apart here.
Key:
adult mongrel dogs [1] = assay: acute in vivo cardiotonic activity in anesthetized dogs; parameters: species or system dog (adult mongrel); settings: Canis lupus familiaris, cardiotonic, relative to controls; for change in vivo at 0.875 mg/kg: dose 0.875 mg/kg intravenous; for change in vivo at 1.875 mg/kg: dose 1.875 mg/kg intravenous; for change in vivo at 1.87 mg/kg: dose 1.87 mg/kg intravenous; for change in vivo at 0.125 mg/kg: dose 0.125 mg/kg intravenous
Method: The acute in vivo cardiotonic activity of compounds prepared according to the present invention was determined according to a modification of the procedure described by Alousi et al., Circ. Res., 45, 666 (1979).
In particular, adult mongrel dogs were anesthetized with sodium pentobarbital and were artificially respired. Arterial pressure was monitored via a femoral artery, and the pulse pressure was used to trigger a cardiotachometer for heart rate. Left ventricular pressure was determined with a Millar catheter, and dP/dt (the change in ventricular pressure with time) was derived. Cardiac output was determined by measuring ascending aortic blood flow with an electromagnetic flow probe, and myocardial contractile force was measured with a Walton Brodie strain gauge sutured to the right ventricle. Lead II EKG was also recorded.
A standard dose (10 μg/kg/min) of dopamine was administered to assess myocardial responsiveness.
Compounds of the invention were administered by intravenous infusion or bolus […] administration, and the effects on cardiovascular parameters were determined.
Dose related effects of the test compound on blood pressure (BP), heart rate (HR), maximum change in left ventricular pressure with time (dP/dt max),% change in cardiac force (CF) and the increase in mean arterial blood pressure relative to controls (MABP) were compared to pretreatment control values, expressed as a% change and rated for activity.

adult mongrel dogs [2] = assay: renal vasodilating activity in anesthetized dogs; format: in vivo, dog (adult mongrel); settings: Canis lupus familiaris, renal vasodilator, relative to controls; for change in vivo at 13.9 mg/kg / change in vivo at up to 13.9 mg/kg: dose 13.9 mg/kg intravenous; for change in vivo at 6.2 mg/kg: dose 6.2 mg/kg intravenous; for change in vivo at 1.2 mg/kg: dose 1.2 mg/kg intravenous
Method: Goldberg et al, J. Pharmacol. Exp. Ther., 163, 188 (1968), performed an investigation of the structural requirements for dopamine-like renal vasodilation of phenethylamines and apomorphine. The following procedure is a variation of the assay described in that report.
Adult mongrel dogs were anesthetized and surgically prepared for electromagnetic measurement of renal artery blood flow. A carotid artery was cannulated for measuring arterial blood pressure, and drugs were administered intravenously. Heart rate was monitored with a cardiotachometer. Renal vascular resistance was calculated as the ratio of mean arterial blood pressure/renal artery blood flow. Dopamine was infused intravenously at 3 μg/kg/min for ten minutes (at an infusion rate of about 1 ml/min) to determine responsiveness of each dog to renal dopamine receptor stimulation. Cumulative dose-response data were obtained by infusing a compound of this invention at progressively increasing (usually three-fold) infusion rates, each dose being infused for five minutes. The maximum % increase from pre-drug control in renal artery blood flow (or a decrease in renal vascular resistance) was determined for each infusion dose.
RBF values are percent change in renal blood flow. RVR values are percent change in renal vascular resistance. MABP and HR are percent changes in mean arterial blood pressure and heart rate, respectively, relative to controls.

[3] = read-out: MABP (mean arterial blood pressure)
[4] = read-out: dP/dt (maximum change left ventricular pressure with time)
[5] = read-out: RBF (renal blood flow)
[6] = read-out: RVR (renal vascular resistance)

| SMILES | change in vivo at 0.875 mg/kg (adult mongrel dogs [1]; read-out: CF (cardiac force)) | change in vivo at 0.875 mg/kg (adult mongrel dogs [1]; read-out: HR (heart rate)) | change in vivo at 0.875 mg/kg (adult mongrel dogs [1]; [3]) | change in vivo at 0.875 mg/kg (adult mongrel dogs [1]; [4]) | change in vivo at 1.875 mg/kg (adult mongrel dogs [1]; read-out: CF (cardiac force)) | change in vivo at 1.875 mg/kg (adult mongrel dogs [1]; read-out: HR (heart rate)) | change in vivo at 1.875 mg/kg (adult mongrel dogs [1]; [3]) | change in vivo at 1.875 mg/kg (adult mongrel dogs [1]; [4]) | further results |
| --- | --- | --- | --- | --- | --- | --- | --- | --- | --- |
| CCOC(=O)CCc1c(O)nc(C)c2cc(OC)c(OC)cc12 [S] | 60% | 8% | -4% | 20% |  |  |  |  |  |
| COc1cc2c(C)nc(O)c(CCC(=O)OC3CCCC3)c2cc1OC [T] | 23% | 9% | -3% | 29% |  |  |  |  |  |
| COC(=O)CCc1c(O)nc(C)c2c(OC)c(OC)c(OC)cc12 [Compound J, 4-carbomethoxyethyl-3-hydroxy-6,7,8-trimethoxy-1-methylisoquinoline] | 22% | 8% | -4% | 20% |  |  |  |  | change in vivo at 13.9 mg/kg (adult mongrel dogs [2]; [3]): -1%; change in vivo at 13.9 mg/kg (adult mongrel dogs [2]; [5]): 18%; change in vivo at up to 13.9 mg/kg (adult mongrel dogs [2]; [6]): -23% |
| Cc1nc(O)cc2cc(O)c(O)cc12 [Compound A] |  |  |  |  |  |  |  |  | change in vivo at 13.9 mg/kg (adult mongrel dogs [2]; read-out: HR (heart rate)): 14%; change in vivo at 13.9 mg/kg (adult mongrel dogs [2]; [3]): -9%; change in vivo at 13.9 mg/kg (adult mongrel dogs [2]; [5]): 30%; change in vivo at up to 13.9 mg/kg (adult mongrel dogs [2]; [6]): -30% |
| COc1cc2c(C)nc(O)c(CC(C)C)c2cc1OC [AJ] |  |  |  |  | 39% | 10% | -6% | 25% | change in vivo at 6.2 mg/kg (adult mongrel dogs [2]; read-out: HR (heart rate)): 2%; change in vivo at 6.2 mg/kg (adult mongrel dogs [2]; [3]): 4%; change in vivo at 6.2 mg/kg (adult mongrel dogs [2]; [5]): 9%; change in vivo at 6.2 mg/kg (adult mongrel dogs [2]; [6]): -4% |
| CCOc1cc2cnc(O)cc2cc1OC [AQ] |  |  |  |  |  |  |  |  | change in vivo at 1.2 mg/kg (adult mongrel dogs [2]; read-out: HR (heart rate)): 16%; change in vivo at 1.2 mg/kg (adult mongrel dogs [2]; [3]): 0%; change in vivo at 1.2 mg/kg (adult mongrel dogs [2]; [5]): 13%; change in vivo at 1.2 mg/kg (adult mongrel dogs [2]; [6]): -12% |
| Cc1nc(O)cc2ccc(O)c(O)c12 [Compound I] |  |  |  |  |  |  |  |  | change in vivo at 13.9 mg/kg (adult mongrel dogs [2]; read-out: HR (heart rate)): 38%; change in vivo at 13.9 mg/kg (adult mongrel dogs [2]; [3]): -4%; change in vivo at 13.9 mg/kg (adult mongrel dogs [2]; [5]): 35%; change in vivo at up to 13.9 mg/kg (adult mongrel dogs [2]; [6]): -29% |
| COC(=O)CCc1c(O)nc(C)c2cc3c(cc12)OCO3 [L] | 131% | 38% | -21% | 118% |  |  |  |  |  |
| COC(=O)C(C)Cc1c(O)nc(C)c2cc(OC)c(OC)cc12 (stereo not drawn) [O] |  |  |  |  | 100% | 21% | 0% | 67% | change in vivo at 13.9 mg/kg (adult mongrel dogs [2]; [5]): 15%; change in vivo at up to 13.9 mg/kg (adult mongrel dogs [2]; [6]): -18% |
| COc1cc(Br)c2cc(O)nc(C)c2c1OC [AU] |  |  |  |  |  |  |  |  | change in vivo at 6.2 mg/kg (adult mongrel dogs [2]; read-out: HR (heart rate)): -3%; change in vivo at 6.2 mg/kg (adult mongrel dogs [2]; [3]): 0%; change in vivo at 6.2 mg/kg (adult mongrel dogs [2]; [5]): 20%; change in vivo at 6.2 mg/kg (adult mongrel dogs [2]; [6]): -10% |
| COc1cc2c(C)nc(O)c(CCC(=O)O)c2cc1OC [Compound E, 4-β-Carboxyethyl-3-hydroxy-6,7-dimethoxy-1-methylisoquinoline] |  |  |  |  | 75% | 5% | -3% | 42% | change in vivo at 13.9 mg/kg (adult mongrel dogs [2]; read-out: HR (heart rate)): 11%; change in vivo at 13.9 mg/kg (adult mongrel dogs [2]; [3]): -7%; change in vivo at 13.9 mg/kg (adult mongrel dogs [2]; [5]): 7%; change in vivo at up to 13.9 mg/kg (adult mongrel dogs [2]; [6]): -13% |
| COc1ccc2cc(O)nc(C)c2c1OC [Compound C, 3-Hydroxy-7,8-dimethoxy-1-methylisoquinoline] | 62% | 10% | -6% | 51% |  |  |  |  |  |
| CNC(=O)CCc1c(O)nc(C)c2cc(OC)c(OC)cc12 [X] | 40% | 4% | -5% | 24% |  |  |  |  |  |
| COc1cc2cc(O)nc(C)c2c(OC)c1OC [H] | 76% | 13% | -2% | 45% |  |  |  |  | change in vivo at 13.9 mg/kg (adult mongrel dogs [2]; read-out: HR (heart rate)): 20%; change in vivo at 13.9 mg/kg (adult mongrel dogs [2]; [3]): -12%; change in vivo at 13.9 mg/kg (adult mongrel dogs [2]; [5]): 41%; change in vivo at up to 13.9 mg/kg (adult mongrel dogs [2]; [6]): -38% |
| Cc1nc(O)c(Cl)c2cc3c(cc12)OCO3 [AG] |  |  |  |  | 88% | 28% | -22% | 51% | change in vivo at 1.2 mg/kg (adult mongrel dogs [2]; read-out: HR (heart rate)): 27%; change in vivo at 1.2 mg/kg (adult mongrel dogs [2]; [3]): -27%; change in vivo at 1.2 mg/kg (adult mongrel dogs [2]; [5]): 10%; change in vivo at 1.2 mg/kg (adult mongrel dogs [2]; [6]): -34% |
| COc1cc2c(C)nc(O)c(C(=O)NN)c2cc1OC [AV] |  |  |  |  |  |  |  |  | change in vivo at 1.87 mg/kg (adult mongrel dogs [1]; read-out: CF (cardiac force)): 89%; change in vivo at 1.87 mg/kg (adult mongrel dogs [1]; read-out: HR (heart rate)): 14%; change in vivo at 1.87 mg/kg (adult mongrel dogs [1]; [3]): -2%; change in vivo at 1.87 mg/kg (adult mongrel dogs [1]; [4]): 34%; change in vivo at 1.2 mg/kg (adult mongrel dogs [2]; read-out: HR (heart rate)): 1%; change in vivo at 1.2 mg/kg (adult mongrel dogs [2]; [3]): 5%; change in vivo at 1.2 mg/kg (adult mongrel dogs [2]; [5]): 22%; change in vivo at 1.2 mg/kg (adult mongrel dogs [2]; [6]): -13% |
| CCOc1cc2c(C)nc(O)c(CC)c2cc1OC [AS] |  |  |  |  |  |  |  |  | change in vivo at 0.125 mg/kg (adult mongrel dogs [1]; read-out: CF (cardiac force)): 78%; change in vivo at 0.125 mg/kg (adult mongrel dogs [1]; read-out: HR (heart rate)): 8%; change in vivo at 0.125 mg/kg (adult mongrel dogs [1]; [3]): -10%; change in vivo at 0.125 mg/kg (adult mongrel dogs [1]; [4]): 49%; change in vivo at 6.2 mg/kg (adult mongrel dogs [2]; read-out: HR (heart rate)): 2%; change in vivo at 6.2 mg/kg (adult mongrel dogs [2]; [3]): -1%; change in vivo at 6.2 mg/kg (adult mongrel dogs [2]; [5]): 9%; change in vivo at 6.2 mg/kg (adult mongrel dogs [2]; [6]): -11% |
| CCOc1cc2cc(O)nc(C)c2cc1OC [AW] |  |  |  |  |  |  |  |  | change in vivo at 6.2 mg/kg (adult mongrel dogs [2]; read-out: HR (heart rate)): 59%; change in vivo at 6.2 mg/kg (adult mongrel dogs [2]; [3]): -17%; change in vivo at 6.2 mg/kg (adult mongrel dogs [2]; [5]): 20%; change in vivo at 6.2 mg/kg (adult mongrel dogs [2]; [6]): -34% |
| COC(=O)CCc1c(O)ncc2cc3c(cc12)OCO3 [U] |  |  |  |  | 26% | 6% | 0% | 28% |  |
| COC(=O)CCc1c(O)nc(C(C)C)c2cc(OC)c(OC)cc12 [P] |  |  |  |  | 15% | 7% | 3% | 17% |  |
| CCCc1nc(O)c(CCC(=O)OC)c2cc(OC)c(OC)cc12 [M] |  |  |  |  | 17% | 2% | -4% | 19% |  |
| COc1cc2c(C)nc(O)c(CCC(=O)OC(C)C)c2cc1OC [Compound R, 4-β-Carboisopropoxyethyl-3-hydroxy-6,7-dimethoxy-1-methylisoquinoline] |  |  |  |  | 22% | 3% | -6% | 15% |  |
